Source: US20020009436A1, “Methods and compositions for inhibiting adhesion by microorganisms” (priority 1999, published 2002)
Like-named read-outs stand apart in the source and are kept apart here.

How the values were obtained:
[1] = test system: polyphenol oxidase; experiment: Effect of inhibiting polyphenol oxidase activity on dextran aggregation; type: cell-based; details: for effect on polyphenol oxidase induced inactivation: protease inhibitors added before polyphenol oxidase
Experimental: (§1) The standard rate assay published by Drake et al. (Drake D. et al. Infect. Immun. 56:1864-1872 (1988)) was used to study the interaction of S. sobrinus 6715 glucan-binding lectin with high molecular weight dextran. Briefly, bacterial suspensions were adjusted to an optical density of 0.75-0.90 in PBS, and 3-ml suspensions were added to test tubes (13×100 mm). Dextran T-2000 was added at a final concentration of 10 1μg/ml and the suspensions were vortexed for 5 sec. Control tubes received PBS. The decrease in optical density was continuously monitored spectrophotometrically for 5 min. Rate constants were obtained from the slopes of first-order plots of ln A/A0 (A=observed optical density; A0 optical density at time zero) versus time in minutes. Each sample was assayed at least three times.
Cells were suspended in phosphate buffer (20 mM, pH 6.5) and treated with either polyphenol oxidase (Worthington Biochemical Corporation, Freehold N.J., Lot 37A889) (1260 U/ml) for 1 h at 37° C. with rotary shaking (150 rev/min), then washed twice with cold PBS. Inhibitors (all from Sigma), when present, were added before polyphenol oxidase addition at the following concentrations: phenylmethylsulfonyl fluoride (PMSF) 500 μM; leupeptin, 500 μg/ml; ethylenediaminetetracetic acid (EDTA), 5 mM, potassium chloride 200 mM; polyvinylpyrrolidone, 500 μg/m; ascorbic acid, 3 mM; lactic acid, 10%.

[2] = test system: polyphenol oxidase; experiment: as above; type: cell-based; details: inhibitor concentration 2.5%
[3] = test system: S. sobrinus 6715 glucan-binding lectin; experiment: Aggregation of S. sobrinus with high molecular weight dextran T-2000 (standard rate assay); type: cell-based, Streptococcus sobrinus; details: dextran T-10 1 mg/ml or glycogen 2.5 mg/ml before polyphenol oxidase treatment
Experimental: S. sobrinus 6715 was maintained on tryptic soy agar (Difco, Detroit, Mich.) and grown for experiments in Terleckyj's defined medium or tryptic soy broth (TSB) (Difco) pretreated with dextranase (1 mg of enzyme per g dry medium) and invertase (5 mg per g dry medium) for 2 h each in 5% CO2 at 37° C. for 16-18h. Cultures were centrifuged at 12,000×g for 10 min and washed twice with cold phosphate buffered saline (PBS, 20 mM, pH 7.2). Cells were suspended in PBS to an optical density of 0.8 (A540). Cultures grown in TSB were harvested and suspended in PBS and subsequently treated with dextranase for 1 h, followed by washing two times in PBS.
as §1, with “Each sample was assayed at least three times.” left out

[4] = test system: E. coli possessing type 1 fimbriae / Saccharomyces cerevisiae cells; experiment: Adhesion of E. coli to yeast; type: cell-based
Experimental: Materials and methods were generally as described in the previous Examples, but slightly modified for observing adhesion by E. coli to yeast. […] Cells were washed 2× in PBS and suspended in PB. Cells were treated with polyphenol oxidase at 37° C., washed 2×, and resuspended in PBS. E. coli (5×10^8 cells) were incubated with 1×10^5 Saccharomyces cerevisiae cells in a 3 ml volume and rotated with an end-over-end motion at 37° C. for 30 min. Suspensions were harvested, washed 2× in PBS and resuspended in 300 μl PBS. Methyl-α-D-mannose was added to some reaction mixtures. Ten μl samples were withdrawn and placed on a microscope slide, heat-fixed, stained with crystal violet for 2 min, rinsed and dried. Preparations were viewed at 1000× with phase-contrast microscopy. Numbers of bacteria bound to yeast cells were tabulated.

[5] = test system: B. fragilis (adhesin) / A. naeslundii ATCC 12104 (receptor); experiment: Coaggregation B. fragilis / A. naeslundii ATCC 12104; details: B. fragilis (adhesin) enzyme treated; polyphenol oxidase 90 U/ml
Experimental: S. sanguis 10556, A. naeslundii strains 12104 and T14V and E. coli were grown static cultures in Todd-Hewitt broth (BBL Microbiology Systems, Cockeysville, Md.). P. gingivalis W50, A. actinomycetemcomitans and C. ochracea were grown in brain heart infusion broth (BBL). F. nucleatum 22586 and P. intermedia 25611 were grown in modified Schaedler broth (BBL). All oral species except S. sanguis 10556 were incubated at 37° C. as static cultures under an anaerobic atmosphere containing H2, CO2 and N2(10:10:80) with GasPaks (BBL). S. sanguis was incubated at 37° C. as static cultures in 5% CO2.
Bacteria were harvested in the mid to late exponential growth phase by centrifugation (10,000×g for 10 min at 4° C.). The cells were washed twice in coaggregation buffer (30 mM 3-[N-morpholino]propanesulfonic acid (MOPS), pH 7.0) and adjusted to an optical density of 0.6-0.8 at 540 nm (1-cm path). […]
Coaggregation was assessed by turbidity changes. Following mixing of the cells for 10 s on a Vortex mixer, absorbance readings were made every 30 min. The percentage of coaggregation was calculated from the following formula: Percent coaggregation=[OD540(A)+OD540(B)−OD540(A+B)]/(OD540(A)+OD540(B)), where A is the control containing cells of one strain, B is the control containing cells of the other strain, and A+B is the reaction mixture containing both cells. […]

[6] = test system: type 1-fimbriated and P-fimbriated E. coli; experiment: Growth inhibition of E. coli; type: cell-based; details: ampicillin 1 mg/ml to 0.015 mg/ml; polyphenol oxidase 1128 to 17.5 units/ml; asparaginase 20 to 0.31 units/ml; data not shown
Experimental: Similar and/or art recognized methods were used to monitor the effects of asparaginase on growth of other microbes including two strains of E. coli, S. pyogenes, Klebsiella pneumoniae, Bacillus cereus, and Proteus vulgaris. Both type 1-fimbriated and P-fimbriated E. coli were incubated with polyphenol oxidase, asparaginase, and ampicillin to test the ability of these agents to inhibit the growth of the bacteria.

[7] = known polyphenol oxidase inhibitors

O=C1O[C@H]([C@@H](O)CO)C(O)=C1O [ascorbic acid]
Percent Inhibition of Polyphenol Oxidase Induced Reduction in Aggregation ([1]; inhibitor concentration 3 mM): 100%
effect on the effects of polyphenol oxidase on glucan aggregation [1, 7]: reduced the effects

CC(O)C(=O)O (stereo not drawn) [lactic acid]
Percent Inhibition of Polyphenol Oxidase Induced Reduction in Aggregation ([1]; inhibitor concentration 10%): 92 (+/−8) Percent
effect on the effects of polyphenol oxidase on glucan aggregation [1, 7]: reduced the effects

O=S(=O)(F)Cc1ccccc1 [PMSF, phenylmethylsulfonyl fluoride]
Percent Inhibition of Polyphenol Oxidase Induced Reduction in Aggregation ([1]; inhibitor concentration 500 μM): 0%
effect on polyphenol oxidase induced inactivation [1]: completely inhibited

[Cl-].[K+] [KCl, potassium chloride]
effect on the effects of polyphenol oxidase on glucan aggregation [1, 7]: reduced the effects
Percent Inhibition of Polyphenol Oxidase Induced Reduction in Aggregation [2]: 100%

O=C(O)CN(CCN(CC(=O)O)CC(=O)O)CC(=O)O [EDTA, ethylenediaminetetracetic acid]
Percent Inhibition of Polyphenol Oxidase Induced Reduction in Aggregation [1]: 100%
effect on the effects of polyphenol oxidase on glucan aggregation [1]: reduced the effects

glycogen [reference compound]
effect of pre-incubating the bacteria with carbohydrate on the polyphenol oxidase inhibition of aggregation [3]: no effect

COC1OC(CO)C(O)C(O)C1O [Methyl-α-mannose, Methyl-α-D-mannose]
effect of preincubating E. coli before polyphenol oxidase treatment [4]: eliminated polyphenol oxidase mediated reduction of adhesion
attachment of control cells to Saccharomyces ([4]; added to control cells): prevented their attachment

Per: horseradish peroxidase
Inhibition % of coaggregation [5]: 11%

CC1(C)S[C@@H]2[C@H](NC(=O)[C@H](N)c3ccccc3)C(=O)N2[C@H]1C(=O)O [ampicillin, reference compound]
inhibition of growth of P-fimbriated E. coli [6]: inhibited the growth
inhibition of growth of type 1-fimbriated E. coli [6]: inhibited the growth

CC(=O)N[C@@H](CC(C)C)C(=O)N[C@@H](CC(C)C)C(=O)N[C@H](C=O)CCCNC(=N)N [leupeptin]
Percent Inhibition of Polyphenol Oxidase Induced Reduction in Aggregation ([1]; inhibitor concentration 500 μg/ml): 0%
effect on polyphenol oxidase induced inactivation [1]: completely inhibited
